Measurements taken from ChEMBL document CHEMBL1123642, “Design and synthesis of phosphonate inhibitors of glutamine synthetase” (J Med Chem, 1987).

Key:
[1] = molecular target: glutamine synthetase (Escherichia coli) (UniProt P0A9C5); assay: Tested for the inhibition of Glutamine synthetase (Escherichia coli) activity using biosynthetic assay [[…] (pH 7), 5 mM MgCl2] at a concentration of 0.1 mM
[2] = tested on: glutamine synthetase (Ovis aries); assay: Tested for the inhibition of Glutamine synthetase (Ovine brain) activity using Gamma-glutamyl transferase assay [[…] (pH 7), 5 mM MgCl2] at a concentration of 1.0 mM
[3] = molecular target: glutamine synthetase (Escherichia coli) (UniProt P0A9C5); assay: Tested for the inhibition of Glutamine synthetase (Escherichia coli) activity using biosynthetic assay [[…] (pH 7), 5 mM MgCl2] at a concentration of 1.0 mM
[4] = tested on: glutamine synthetase (Ovis aries); assay: Tested for the inhibition of Glutamine synthetase (Ovine brain) activity using Gamma-glutamyl transferase assay [[…] (pH 7), 5 mM MgCl2] at a concentration of 0.1 mM
[5] = tested on: glutamine synthetase (Pisum sativum); assay: Tested for the inhibition of Glutamine synthetase (Pea seed) activity using Gamma-glutamyl transferase assay [[…] (pH 7), 5 mM MgCl2] at a concentration of 0.1 mM; conditions: Lathyrus oleraceus
[6] = tested on: glutamine synthetase (Ovis aries); assay: Tested for the inhibition of Glutamine synthetase (Ovine brain) activity using biosynthetic assay [[…] (pH 7), 5 mM MgCl2] at a concentration of 0.1 mM
[7] = molecular target: glutamine synthetase (Escherichia coli) (UniProt P0A9C5); assay: Tested for the inhibition of Glutamine synthetase (Escherichia coli) activity using biosynthetic assay [[…] (pH 7), 5 mM MgCl2] at a concentration of 10.0 mM
[8] = molecular target: glutamine synthetase (Escherichia coli) (UniProt P0A9C5); assay: Tested for the inhibition of Glutamine synthetase (Escherichia coli) activity using Gamma-glutamyl transferase assay [[…] (pH 7), 5 mM MgCl2] at a concentration of 0.1 mM
[9] = tested on: glutamine synthetase (Pisum sativum); assay: Tested for the inhibition of Glutamine synthetase(Pea seed) activity using Gamma-glutamyl transferase assay [[…] (pH 7), 5 mM MgCl2] at a concentration of 10.0 mM; conditions: Lathyrus oleraceus
[10] = tested on: glutamine synthetase (Pisum sativum); assay: Tested for the inhibition of Glutamine synthetase (Pea seed) activity using biosynthetic assay [[…] (pH 7), 5 mM MgCl2] at a concentration of 10.0 mM; conditions: Lathyrus oleraceus
[11] = tested on: glutamine synthetase (Pisum sativum); assay: Tested for the inhibition of Glutamine synthetase (Pea seed) activity using biosynthetic assay [[…] (pH 7), 5 mM MgCl2] at a concentration of 0.1 mM; conditions: Lathyrus oleraceus
[12] = tested on: glutamine synthetase (Ovis aries); assay: Tested for the inhibition of Glutamine synthetase (Ovine brain) activity using biosynthetic assay [[…] (pH 7), 5 mM MgCl2] at a concentration of 1.0 mM
[13] = tested on: glutamine synthetase (Pisum sativum); assay: Tested for the inhibition of Glutamine synthetase (Pea seed) activity using biosynthetic assay [[…] (pH 7), 5 mM MgCl2] at a concentration of 1.0 mM; conditions: Lathyrus oleraceus
[14] = molecular target: glutamine synthetase (Escherichia coli) (UniProt P0A9C5); assay: Tested for the inhibition of Glutamine synthetase (Escherichia coli) activity using Gamma-glutamyl transferase assay [[…] (pH 7), 5 mM MgCl2] at a concentration of 10.0 mM
[15] = tested on: glutamine synthetase (Pisum sativum); assay: Tested for the inhibition of Glutamine synthetase (Pea seed) activity using Gamma-glutamyl transferase assay [[…] (pH 7), 5 mM MgCl2] at a concentration of 1.0 mM; conditions: Lathyrus oleraceus
[16] = tested on: glutamine synthetase (Ovis aries); assay: Tested for the inhibition of Glutamine synthetase (Ovine brain) activity using Gamma-glutamyl transferase assay [[…] (pH 7), 5 mM MgCl2] at a concentration of 10.0 mM
[17] = molecular target: glutamine synthetase (Escherichia coli) (UniProt P0A9C5); assay: Tested for the inhibition of Glutamine synthetase (Escherichia coli) activity using Gamma-glutamyl transferase assay [[…] (pH 7), 5 mM MgCl2] at a concentration of 1.0 mM
[18] = tested on: glutamine synthetase (Ovis aries); assay: Tested for the inhibition of Glutamine synthetase (Ovine brain) activity using biosynthetic assay [[…] (pH 7), 5 mM MgCl2] at a concentration of 10.0 mM
[19] = tested on: glutamine synthetase (Pisum sativum); assay: Tested for the inhibition of Glutamine synthetase (Pea seed) activity using Gamma-glutamyl transferase assay [[…] (pH 7), 5 mM MgCl2] at a concentration of 10.0 mM; conditions: Lathyrus oleraceus
[20] = tested on: glutamine synthetase (Pisum sativum); assay: Tested for the inhibition of Glutamine synthetase (Pea seed) activity using biosynthetic assay [[…] (pH 7), 5 mM MgCl2] at a concentration of 0 mM; conditions: Lathyrus oleraceus
[21] = tested on: glutamine synthetase (Pisum sativum); assay: Tested for the inhibition of Glutamine synthetase (Pea seed) activity using Gamma-glutamyl transferase assay [[…] (pH 7), 5 mM MgCl2] at a concentration of 0 mM; conditions: Lathyrus oleraceus
[22] = molecular target: glutamine synthetase (Escherichia coli) (UniProt P0A9C5); assay: Tested for the inhibition of Glutamine synthetase (Escherichia coli) activity using Gamma-glutamyl transferase assay [[…] (pH 7), 5 mM MgCl2] at a concentration of 0 mM
[23] = tested on: glutamine synthetase (Ovis aries); assay: Tested for the inhibition of Glutamine synthetase (Ovine brain) activity using biosynthetic assay [[…] (pH 7), 5 mM MgCl2] at a concentration of 0 mM
[24] = tested on: glutamine synthetase (Ovis aries); assay: Tested for the inhibition of Glutamine synthetase (Ovine brain) activity using Gamma-glutamyl transferase assay [[…] (pH 7), 5 mM MgCl2] at a concentration of 0 mM
[25] = molecular target: glutamine synthetase (Escherichia coli) (UniProt P0A9C5); assay: Tested for the inhibition of Glutamine synthetase (Escherichia coli) activity using biosynthetic assay [[…] (pH 7), 5 mM MgCl2] at a concentration of 0 mM

Chain of glutamine synthetase (Escherichia coli) (P0A9C5 whole entry, looked up): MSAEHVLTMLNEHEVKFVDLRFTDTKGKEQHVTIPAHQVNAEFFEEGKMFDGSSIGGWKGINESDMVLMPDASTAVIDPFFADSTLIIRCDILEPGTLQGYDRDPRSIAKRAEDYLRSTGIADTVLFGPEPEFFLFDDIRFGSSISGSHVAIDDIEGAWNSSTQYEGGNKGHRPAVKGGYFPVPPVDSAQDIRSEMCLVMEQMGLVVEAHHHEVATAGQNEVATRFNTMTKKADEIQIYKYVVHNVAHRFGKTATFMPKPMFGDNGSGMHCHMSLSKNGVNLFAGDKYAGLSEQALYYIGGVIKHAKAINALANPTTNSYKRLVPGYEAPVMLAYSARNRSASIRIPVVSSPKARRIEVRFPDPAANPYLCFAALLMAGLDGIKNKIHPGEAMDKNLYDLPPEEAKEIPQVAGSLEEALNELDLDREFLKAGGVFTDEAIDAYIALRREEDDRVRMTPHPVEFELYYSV

| Relative activity [1] | Relative activity [2] | Relative activity [3] | Relative activity [4] | Relative activity [5] | Relative activity [6] | Relative activity [7] | Relative activity [8] | Relative activity [10] | Relative activity [11] | Relative activity [12] | Relative activity [13] | Relative activity [14] | Relative activity [15] | Relative activity [16] | Relative activity [17] | Relative activity [18] | Relative activity [19] | Structure (SMILES) | further results |
| --- | --- | --- | --- | --- | --- | --- | --- | --- | --- | --- | --- | --- | --- | --- | --- | --- | --- | --- | --- |
| 1.1 | 0.9 | 1 | 0.95 | 0.8 | 1.2 | 1 | 1.1 | 0.85 | 1.1 | 1 | 0.8 | 1 | 0.9 | 0.8 | 1.1 | 1 | – | CC(N)(CCS(=O)(=O)CP(=O)(O)O)C(=O)O (stereo not given) | Relative activity [9]: 0.9 |
| 1.2 | 1 | 1.2 | 1 | 0.9 | 1.2 | 0.95 | 1 | 0.75 | 1.1 | 1.2 | 1.1 | 1.5 | 0.9 | 1.2 | 1 | 1 | 1 | CC(N)(CC[S+]([O-])CP(=O)(O)O)C(=O)O (stereo not given) | – |
| 1 | 1 | 1.95 | 1 | 1 | 1 | 1.25 | 1.1 | 0.5 | 1 | 1 | 1.2 | 1.5 | 1 | 1.1 | 1.4 | 1.2 | 1 | CC(N)(CCSCP(=O)(O)O)C(=O)O (stereo not given) | Relative activity [20]: 1; Relative activity [21]: 1; Relative activity [22]: 1; Relative activity [23]: 1; Relative activity [24]: 1; Relative activity [25]: 1 |
